Source: PMC7922224, “Searching for Small Molecules as Antibacterials: Non-Cytotoxic Diarylureas Analogues of Triclocarban” (Antibiotics, 2021)
In brackets after ≈: the same amount, converted by molar mass.

What was measured:
K. pneumoniae ATCC 13883 = experiment: MIC by broth microdilution (CLSI); format: cell-based; details: Gram-negative, 37 °C, 24 h, Mueller Hinton Broth; for MIC: Klebsiella pneumoniae, ATCC13883, read-out: MIC K.p. 13883
Experimental: (§1) The in vitro Minimum Inhibitory Concentrations (MICs, μg/mL) were determined by the broth microdilution method according to the Clinical Laboratory Standards Institute (CLSI) guidelines. MIC values were recorded as the lowest concentration of compounds at which there was no optically detectable microorganism growth and evaluated by comparing the growth in each well visually with that of the growth in the control well for bacteria. All compounds were dissolved in dimethyl sulfoxide (DMSO) and were tested in a final concentration range of from 512 to 2 µg/mL. MICs for the reference antibiotic norfloxacin against quality control strains were used to confirm the validity of the screen. According to the CLSI guidelines, diphenylureas were tested in vitro against a panel of Gram-positive and Gram-negative bacteria belonging to the ATCC collection using the standard microdilution test for the determination of MICs. MICs of the synthesised compounds along with the parent compound TCC and with the standard antibiotic norfloxacin are listed in Table 1. The compounds were also analyzed in terms of molecular mass, logP (Table 1), number of hydrogen-bond donors and number of hydrogen-bond acceptors, and most of them obeyed Lipinski’s rule. […] Based on our results, it seems that the 3,4-dichloro-disubstitution pattern, which is present in TCC, is not crucial for activity. […] Moreover, the activity against Enterococcus faecalis was interesting. E. faecalis is a ubiquitous member of the healthy human gut microbiota and also a common opportunistic pathogen and leading cause of nosocomial infections. It has a high incidence for most infections, and the case numbers have been increasing in recent decades, likely due to its greater ability to persist in healthcare facilities and its higher abundance in the human gut microbiome. Kim et al. (2016) compared the bactericidal effects of plain and antibacterial soap containing 0.3% TCC. The authors found no significative difference between the effects of plain and medicated soap at either temperature, with the only exception of E. faecalis ATCC 19433 at 40 °C.
(§2) MICs (μg/mL) were determined by the broth microdilution method, using 96-well plates, according to CLSI [26]. Stock solutions of the investigated compounds were obtained by setting the concentration at the maximum possible value. Then, the stock solutions were diluted 1:10 with Mueller Hinton Broth (Oxoid, Italy). Afterwards, twofold serial dilutions in the suitable test medium were carried out to obtain a set of concentrations from 512 to 2 µg/mL in the wells. To obtain the stock solution, DMSO (100%) was employed as diluent. The following bacteria strains, available as freeze-dried discs, belonging to the ATCC collection, were used: Gram-positive: S. aureus ATCC 29213, 6538, and 6538P, E. faecalis ATCC 29212; Gram-negative: K. pneuomoniae ATCC 13883, P. aeruginosa ATCC 27853. To conserve the purity of cultures and to enable their reproducibility, cryovials of all microbial strains in the medium were set up and stored at −80 °C. Pre-cultures of each bacterial strain were prepared in Mueller Hinton Broth (MHB) and incubated at 37 °C for 3–5 h. The turbidity of bacterial cell suspension was calibrated to 0.5 McFarland Standard by the spectrophotometric method (OD 625 nm 0.08–0.10), as indicated in the CLSI protocol M7-A9 and, further, the standardized suspension was diluted (1:100) with MHB to reach 1–2 × 10^6 CFU/mL. All wells were seeded with 100 µl of the mentioned final inoculum, and some wells contained only inoculated broth as control growth. […] The MICs were determined by using the assay repeated twice in triplicate. Throughout the study, norfloxacin was used as reference antibiotic. Appropriate controls involved norfloxacin for bacteria as international reference standard. […]

P. aeruginosa ATCC 27853 = experiment: MIC by broth microdilution (CLSI); format: cell-based; details: Gram-negative, 37 °C, 24 h, Mueller Hinton Broth; for MIC: Pseudomonas aeruginosa, ATCC27853
Experimental: as §1, §2

S. aureus ATCC 6538P = experiment: MIC by broth microdilution (CLSI); format: cell-based, Staphylococcus aureus; details: Gram-positive, 37 °C, 24 h, Mueller Hinton Broth; for MIC: Staphylococcus aureus, ATCC6538P
Experimental: as §1, §2

S. aureus ATCC 29213 = experiment: MIC by broth microdilution (CLSI); format: cell-based, Staphylococcus aureus; details: Gram-positive, 37 °C, 24 h, Mueller Hinton Broth; for MIC: Staphylococcus aureus, ATCC29213
Experimental: as §1, §2

S. aureus ATCC 6538 = experiment: MIC by broth microdilution (CLSI); format: cell-based, Staphylococcus aureus; details: Gram-positive, 37 °C, 24 h, Mueller Hinton Broth; for MIC: Staphylococcus aureus, ATCC6538
Experimental: as §1, §2

E. coli 25922 = experiment: MIC by broth microdilution (CLSI); format: cell-based; details: Escherichia coli, Gram-negative, 37 °C, 24 h, Mueller Hinton Broth
E. faecalis ATCC 29212 = experiment: MIC by broth microdilution (CLSI); format: cell-based, Enterococcus faecalis; details: Gram-positive, 37 °C, 24 h, Mueller Hinton Broth; for MIC: Enterococcus faecalis, ATCC29212, read-out: MIC E.f. 29212
Experimental: as §1, §2

Staphylococcus aureus = experiment: MIC by broth microdilution, S. aureus (strain not given); format: cell-based; details: strain not specified (best value among the ATCC strains), read-out: MIC against S. aureus
Experimental: as §1, §2

Compound: COc1ccc(NC(=O)Nc2c(C)cccc2C)cc1 [1bd, 1-(4-Methoxyphenyl)-3-(2,6-dimethylphenyl)urea]
- MIC (K. pneumoniae ATCC 13883): > 256 mg/L
- MIC (P. aeruginosa ATCC 27853): > 256 mg/L
- MIC (S. aureus ATCC 6538P): 16 mg/L (≈ 59.2 µM)
- MIC (S. aureus ATCC 29213): > 256 mg/L
- MIC (S. aureus ATCC 6538): 32 mg/L (≈ 118 µM)
- MIC (E. coli 25922): > 256 mg/L
- MIC (E. faecalis ATCC 29212): 128 mg/L (≈ 473 µM)
- MIC (Staphylococcus aureus): 16 mg/L (≈ 59.2 µM)

Compound: COc1ccc(NC(=O)Nc2ccc(C)cc2)cc1 [1ad, 1-(4-Methoxyphenyl)-3-(p-tolyl)urea]
- MIC (K. pneumoniae ATCC 13883): > 256 mg/L
- MIC (P. aeruginosa ATCC 27853): > 256 mg/L
- MIC (S. aureus ATCC 6538P): 32 mg/L (≈ 125 µM)
- MIC (S. aureus ATCC 29213): 128 mg/L (≈ 499 µM)
- MIC (S. aureus ATCC 6538): 32 mg/L (≈ 125 µM)
- MIC (E. coli 25922): > 256 mg/L
- MIC (E. faecalis ATCC 29212): 128 mg/L (≈ 499 µM)
- MIC (Staphylococcus aureus): 32 mg/L (≈ 125 µM)

Compound: Cc1ccc(NC(=O)Nc2ccccc2)cc1 [1af, 1-(4-Methylphenyl)-3-phenylurea]
- MIC (K. pneumoniae ATCC 13883): > 256 mg/L
- MIC (P. aeruginosa ATCC 27853): > 256 mg/L
- MIC (S. aureus ATCC 6538P): 128 mg/L (≈ 566 µM)
- MIC (S. aureus ATCC 29213): 128 mg/L (≈ 566 µM)
- MIC (S. aureus ATCC 6538): 64 mg/L (≈ 283 µM)
- MIC (E. coli 25922): > 256 mg/L
- MIC (E. faecalis ATCC 29212): 64 mg/L (≈ 283 µM)

Compound: O=C(Nc1ccc(Cl)cc1)Nc1ccc(Cl)cc1 [1cc (DCC), 1-(4-Chlorophenyl)-3-(4-chlorophenyl)urea]
- MIC (K. pneumoniae ATCC 13883): > 256 mg/L
- MIC (P. aeruginosa ATCC 27853): > 256 mg/L
- MIC (S. aureus ATCC 6538P): 256 mg/L (≈ 911 µM)
- MIC (S. aureus ATCC 29213): 256 mg/L (≈ 911 µM)
- MIC (S. aureus ATCC 6538): 128 mg/L (≈ 455 µM)
- MIC (E. coli 25922): > 256 mg/L
- MIC (E. faecalis ATCC 29212): 128 mg/L (≈ 455 µM)

Compound: COc1ccc(NC(=O)Nc2ccc(Cl)c(Cl)c2)cc1 [1de, 1-(3,4-Dichlorophenyl)-3-(4-methoxyl)phenylurea]
- MIC (K. pneumoniae ATCC 13883): > 256 mg/L
- MIC (P. aeruginosa ATCC 27853): > 256 mg/L
- MIC (S. aureus ATCC 6538P): 64 mg/L (≈ 206 µM)
- MIC (S. aureus ATCC 29213): 128 mg/L (≈ 411 µM)
- MIC (S. aureus ATCC 6538): 64 mg/L (≈ 206 µM)
- MIC (E. coli 25922): > 256 mg/L
- MIC (E. faecalis ATCC 29212): 64 mg/L (≈ 206 µM)

Compound: Cc1ccccc1NC(=O)Nc1ccc(F)c(F)c1 [1gj, 1-(3,4-Difluorophenyl)-3-(2-methylphenyl)urea]
- MIC (K. pneumoniae ATCC 13883): > 256 mg/L
- MIC (P. aeruginosa ATCC 27853): > 256 mg/L
- MIC (S. aureus ATCC 6538P): 128 mg/L (≈ 488 µM)
- MIC (S. aureus ATCC 29213): > 256 mg/L
- MIC (S. aureus ATCC 6538): 64 mg/L (≈ 244 µM)
- MIC (E. coli 25922): > 256 mg/L
- MIC (E. faecalis ATCC 29212): 64 mg/L (≈ 244 µM)

Compound: O=C(Nc1ccccc1)Nc1ccccc1 [1ff (NCC), 1,3-Diphenylurea]
- MIC (K. pneumoniae ATCC 13883): > 256 mg/L
- MIC (P. aeruginosa ATCC 27853): > 256 mg/L
- MIC (S. aureus ATCC 6538P): 64 mg/L (≈ 302 µM)
- MIC (S. aureus ATCC 29213): > 256 mg/L
- MIC (S. aureus ATCC 6538): 128 mg/L (≈ 603 µM)
- MIC (E. coli 25922): > 256 mg/L
- MIC (E. faecalis ATCC 29212): > 256 mg/L

Compound: Cc1ccccc1NC(=O)Nc1ccc(Cl)c(Cl)c1 [1eg, 1-(3,4-Dichlorophenyl)-3-(2-methylphenyl)urea]
- MIC (K. pneumoniae ATCC 13883): > 256 mg/L
- MIC (P. aeruginosa ATCC 27853): > 256 mg/L
- MIC (S. aureus ATCC 6538P): 128 mg/L (≈ 434 µM)
- MIC (S. aureus ATCC 29213): 256 mg/L (≈ 867 µM)
- MIC (S. aureus ATCC 6538): 64 mg/L (≈ 217 µM)
- MIC (E. coli 25922): > 256 mg/L
- MIC (E. faecalis ATCC 29212): 64 mg/L (≈ 217 µM)

Compound: O=C(Nc1ccccc1)Nc1ccc(F)c(F)c1 [1fj, 1-(3,4-Difluorophenyl)-3-phenylurea]
- MIC (K. pneumoniae ATCC 13883): 256 mg/L (≈ 1030 µM)
- MIC (P. aeruginosa ATCC 27853): 256 mg/L (≈ 1030 µM)
- melting point: 213 to 214 °C
- MIC (S. aureus ATCC 6538P): 64 mg/L (≈ 258 µM)
- MIC (S. aureus ATCC 29213): 256 mg/L (≈ 1030 µM)
- MIC (S. aureus ATCC 6538): 128 mg/L (≈ 516 µM)
- MIC (E. faecalis ATCC 29212): 128 mg/L (≈ 516 µM)

Compound: Cc1ccc(NC(=O)Nc2ccccc2C)cc1 [1ag, 1-(2-Methylphenyl)-3-(4-methylphenyl)urea]
- MIC (K. pneumoniae ATCC 13883): > 256 mg/L
- MIC (P. aeruginosa ATCC 27853): > 256 mg/L
- MIC (S. aureus ATCC 6538P): 256 mg/L (≈ 1070 µM)
- MIC (S. aureus ATCC 29213): 256 mg/L (≈ 1070 µM)
- MIC (S. aureus ATCC 6538): 128 mg/L (≈ 533 µM)
- MIC (E. coli 25922): > 256 mg/L
- MIC (E. faecalis ATCC 29212): 128 mg/L (≈ 533 µM)

Compound: O=C(Nc1ccccc1)Nc1ccc(Cl)c(Cl)c1 [1ef, 1-(3,4-Dichlorophenyl)-3-phenylurea]
- MIC (K. pneumoniae ATCC 13883): > 256 mg/L
- MIC (P. aeruginosa ATCC 27853): 256 mg/L (≈ 911 µM)
- MIC (S. aureus ATCC 6538P): 128 mg/L (≈ 455 µM)
- MIC (S. aureus ATCC 29213): 256 mg/L (≈ 911 µM)
- MIC (S. aureus ATCC 6538): 16 mg/L (≈ 56.9 µM)
- MIC (E. coli 25922): > 256 mg/L
- MIC (E. faecalis ATCC 29212): 128 mg/L (≈ 455 µM)
- MIC (Staphylococcus aureus): 16 mg/L (≈ 56.9 µM)

Compound: 1-(3-Chloro-4-fluorophenyl)-3-(2-methylphenyl)urea [1gk]
- MIC K.p. 13883 (K. pneumoniae ATCC 13883): 256 mg/L
- MIC P. a. 27853 (P. aeruginosa ATCC 27853): 256 mg/L
- MIC S.a. 6538P (S. aureus ATCC 6538P): 64 mg/L
- MIC S.a. 29213 (S. aureus ATCC 29213): 256 mg/L
- MIC S.a. 6538 (S. aureus ATCC 6538): 128 mg/L
- MIC E.f. 29212 (E. faecalis ATCC 29212): 64 mg/L

Compound: O=C(Nc1ccccc1)Nc1ccc(Cl)cc1 [1cf (MCC), 1-(4-Chlorophenyl)-3-phenylurea]
- MIC (K. pneumoniae ATCC 13883): > 256 mg/L
- MIC (P. aeruginosa ATCC 27853): > 256 mg/L
- MIC (S. aureus ATCC 6538P): 128 mg/L (≈ 519 µM)
- MIC (S. aureus ATCC 29213): 128 mg/L (≈ 519 µM)
- MIC (S. aureus ATCC 6538): 64 mg/L (≈ 259 µM)
- MIC (E. coli 25922): > 256 mg/L
- MIC (E. faecalis ATCC 29212): 64 mg/L (≈ 259 µM)

Compound: COc1ccc(NC(=O)Nc2ccccc2)cc1 [1df, 1-(4-Methoxyphenyl)-3-phenylurea]
- MIC (K. pneumoniae ATCC 13883): > 256 mg/L
- MIC (P. aeruginosa ATCC 27853): 256 mg/L (≈ 1060 µM)
- MIC (S. aureus ATCC 6538P): 128 mg/L (≈ 528 µM)
- MIC (S. aureus ATCC 29213): 256 mg/L (≈ 1060 µM)
- MIC (S. aureus ATCC 6538): 64 mg/L (≈ 264 µM)
- MIC (E. coli 25922): > 256 mg/L
- MIC (E. faecalis ATCC 29212): 128 mg/L (≈ 528 µM)
